Assay results as given in ChEMBL document CHEMBL1153587, “Design, synthesis and biological evaluation of novel nitrogen and sulfur containing hetero-1,4-naphthoquinones as potent antifungal and antibacterial agents” (2009).
≈ marks a conversion by molar mass, not a printed value.

Legend:
Format in all cases: functional
[1] = tested on: Cryptococcus neoformans; experiment: Antifungal activity against Cryptococcus neoformans after 72 hrs by broth microdilution method
[2] = tested on: Candida parapsilosis; experiment: Antifungal activity against Candida parapsilosis ATCC 22019 after 48 hrs by broth microdilution method; settings: Lodderomyces parapsilosis, ATCC 22019, 48 h
[3] = tested on: Sporothrix schenckii; experiment: Antifungal activity against Sporothrix schenckii after 72 hrs by broth microdilution method
[4] = tested on: Trichophyton mentagrophytes; experiment: Antifungal activity against sTrichophyton mentagrophytes after 96 hrs by broth microdilution method
[5] = tested on: Aspergillus fumigatus; experiment: Antifungal activity against Aspergillus fumigatus after 72 hrs by broth microdilution method
[6] = tested on: Candida albicans; experiment: Antifungal activity against Candida albicans after 48 hrs by broth microdilution method
[7] = tested on: Klebsiella pneumoniae; experiment: Antibacterial activity against Klebsiella pneumoniae ATCC 27736 after 24 hrs by broth microdilution method
[8] = tested on: Escherichia coli; experiment: Antibacterial activity against Escherichia coli after 24 hrs by broth microdilution method
[9] = tested on: Staphylococcus aureus; experiment: Antibacterial activity against Staphylococcus aureus ATCC 25923 after 24 hrs by broth microdilution method

Compound | MIC [1] [µg/mL] | MIC [2] [µg/mL] | MIC [3] [µg/mL] | MIC [4] [µg/mL] | MIC [5] [µg/mL] | MIC [6] [µg/mL] | MIC ([7]; ATCC 27736, 24 h) [µg/mL] | MIC [8] [µg/mL] | MIC ([9]; ATCC 25923, 24 h) [µg/mL] | MIC [7] [µg/mL] | MIC [9] [µg/mL]
O=C1C(Nc2ccccc2)=C(Sc2cccc3ccccc23)C(=O)c2ccccc21 | > 50 | > 50 | > 50 | > 50 | > 50 | 50 (≈ 123 µM) | – | – | – | – | –
Cn1c(N)c2ccccc2nc2c(=O)c3ccccc3c(=O)c1=2 | 50 (≈ 165 µM) | 50 (≈ 165 µM) | 25 (≈ 82.4 µM) | 25 (≈ 82.4 µM) | 25 (≈ 82.4 µM) | > 50 | 50 (≈ 165 µM) | 25 (≈ 82.4 µM) | > 50 | – | –
O=C1C(Cl)=C(NCCN2C(=O)c3ccccc3C2=O)C(=O)c2ccccc21 | – | – | – | – | – | – | 50 (≈ 131 µM) | 6.25 (≈ 16.4 µM) | 6.25 (≈ 16.4 µM) | – | –
N#Cc1ccccc1NC1=C(Nc2ccccc2C#N)C(=O)c2ccccc2C1=O | 25 (≈ 64 µM) | 50 (≈ 128 µM) | > 50 | > 50 | > 50 | > 50 | – | – | – | – | –
Nc1c2ccccc2nc2c(=O)c3ccccc3c(=O)c=2n1-c1ccccc1 | 25 (≈ 68.4 µM) | 25 (≈ 68.4 µM) | > 50 | 12.5 (≈ 34.2 µM) | > 50 | 25 (≈ 68.4 µM) | – | – | – | – | –
O=c1c2[nH]c3ccccc3sc=2c(=O)c2ccccc12 | – | – | – | – | – | – | > 50 | 25 (≈ 89.5 µM) | 25 (≈ 89.5 µM) | – | –
COc1cccc(SC2=C(N(c3ccccc3)c3ccccc3)C(=O)c3ccccc3C2=O)c1 | – | – | – | – | – | – | 50 (≈ 108 µM) | > 50 | 25 (≈ 53.9 µM) | – | –
NC1=C(Sc2ccccc2)C(=O)c2ccccc2C1=O | 25 (≈ 88.9 µM) | 12.5 (≈ 44.4 µM) | 25 (≈ 88.9 µM) | 12.5 (≈ 44.4 µM) | 6.25 (≈ 22.2 µM) | 12.5 (≈ 44.4 µM) | 1.56 (≈ 5.54 µM) | > 50 | 6.25 (≈ 22.2 µM) | – | –
COc1ccc2[nH]c3c(=O)c4ccccc4c(=O)c=3sc2c1 | – | – | – | – | – | – | > 50 | 25 (≈ 80.8 µM) | 12.5 (≈ 40.4 µM) | – | –
NC[C@H]1O[C@H](O[C@H]2[C@H](O)[C@@H](O[C@H]3O[C@H](CO)[C@@H](O)[C@H](N)[C@H]3O)[C@H](N)C[C@@H]2N)[C@H](O)[C@@H](O)[C@@H]1O [KANAMYCIN] | – | – | – | – | – | – | 32 (≈ 66 µM) | 16 (≈ 33 µM) | 2 (≈ 4.13 µM) | – | –
O=C1C(Sc2ccccc2)=C(N(c2ccccc2)c2ccccc2)C(=O)c2ccccc21 | – | – | – | – | – | – | 50 (≈ 115 µM) | > 50 | 50 (≈ 115 µM) | – | –
GENTAMICIN | – | – | – | – | – | – | – | 0.18 | – | 0.39 | 0.78
N#Cc1ccccc1NC1=C(Cl)C(=O)c2ccccc2C1=O | 50 (≈ 162 µM) | 25 (≈ 81 µM) | > 50 | > 50 | > 50 | 50 (≈ 162 µM) | – | – | – | – | –
NC[C@H]1O[C@H](O[C@H]2[C@H](O)[C@@H](O[C@H]3O[C@H](CO)[C@@H](O)[C@H](N)[C@H]3O)[C@H](N)C[C@@H]2N)[C@H](N)C[C@@H]1O [TOBRAMYCIN] | – | – | – | – | – | – | 1 (≈ 2.14 µM) | 0.5 (≈ 1.07 µM) | 0.25 (≈ 0.535 µM) | – | –
O=C1C(Nc2ccccc2)=C(Sc2ccccc2)C(=O)c2ccccc21 | – | – | – | – | – | – | 25 (≈ 69.9 µM) | > 50 | > 50 | – | –
O=C1C(Cl)=C(Nc2ccccc2)C(=O)c2ccccc21 | > 50 | > 50 | > 50 | > 50 | > 50 | > 50 | > 50 | > 50 | > 50 | – | –

Compound | MIC [1] [µg/mL] | MIC [2] [µg/mL] | MIC [3] [µg/mL] | MIC [4] [µg/mL] | MIC [5] [µg/mL] | MIC [6] [µg/mL] | MIC ([7]; ATCC 27736, 24 h) [µg/mL] | MIC [8] [µg/mL] | MIC ([9]; ATCC 25923, 24 h) [µg/mL] | MIC [7] [µg/mL] | MIC [9] [µg/mL]
O=C1C(Sc2cccc3ccccc23)=C(N(c2ccccc2)c2ccccc2)C(=O)c2ccccc21 | > 50 | > 50 | > 50 | 50 (≈ 103 µM) | 50 (≈ 103 µM) | 25 (≈ 51.7 µM) | – | – | – | – | –
NCC[C@H](O)C(=O)N[C@@H]1C[C@H](N)[C@@H](O[C@H]2O[C@H](CN)[C@@H](O)[C@H](O)[C@H]2O)[C@H](O)[C@H]1O[C@H]1O[C@H](CO)[C@@H](O)[C@H](N)[C@H]1O [AMIKACIN] | – | – | – | – | – | – | 1 (≈ 1.71 µM) | 1 (≈ 1.71 µM) | 16 (≈ 27.3 µM) | – | –
N#Cc1ccccc1NC1=C(Br)C(=O)c2ccccc2C1=O | 12.5 (≈ 35.4 µM) | 12.5 (≈ 35.4 µM) | > 50 | 6.25 (≈ 17.7 µM) | > 50 | 25 (≈ 70.8 µM) | – | – | – | – | –
Clc1ccc(COC(Cn2ccnc2)c2ccc(Cl)cc2Cl)c(Cl)c1 (configuration not stated) [MICONAZOLE] | 12.5 (≈ 30 µM) | – | – | < 0.78 | 12.5 (≈ 30 µM) | 25 (≈ 60.1 µM) | – | – | – | – | –
O=C1C(Cl)=C(Nc2ccc(O)cc2)C(=O)c2ccccc21 | 0.78 (≈ 2.6 µM) | 6.25 (≈ 20.9 µM) | 1.56 (≈ 5.2 µM) | 1.56 (≈ 5.2 µM) | 3.12 (≈ 10.4 µM) | 1.56 (≈ 5.2 µM) | 6.25 (≈ 20.9 µM) | > 50 | 6.25 (≈ 20.9 µM) | – | –
O=C1C(Cl)=C(Sc2ccccc2)C(=O)c2ccccc21 | – | – | – | – | – | – | > 50 | 12.5 (≈ 41.6 µM) | 25 (≈ 83.1 µM) | – | –
O=C1C(Cl)=C(Sc2cccc3ccccc23)C(=O)c2ccccc21 | – | – | – | – | – | – | > 50 | 25 (≈ 71.3 µM) | > 50 | – | –
NYSTATIN | 3.5 | – | 13.2 | – | – | 7.8 | – | – | – | – | –
NC1=C(Sc2cccc3ccccc23)C(=O)c2ccccc2C1=O | 50 (≈ 151 µM) | 50 (≈ 151 µM) | > 50 | 25 (≈ 75.4 µM) | 25 (≈ 75.4 µM) | 25 (≈ 75.4 µM) | 12.5 (≈ 37.7 µM) | > 50 | 12.5 (≈ 37.7 µM) | – | –
OC(Cn1cncn1)(Cn1cncn1)c1ccc(F)cc1F [FLUCONAZOLE] | 0.5 (≈ 1.63 µM) | 1 (≈ 3.27 µM) | 2 (≈ 6.53 µM) | 1.56 (≈ 5.09 µM) | 2 (≈ 6.53 µM) | 1 (≈ 3.27 µM) | – | – | – | – | –
O=C1C(Nc2ccc(O)cc2)=C(Sc2ccccc2)C(=O)c2ccccc21 | – | – | – | – | – | – | > 50 | > 50 | 50 (≈ 134 µM) | – | –
COc1cccc(SC2=C(N)C(=O)c3ccccc3C2=O)c1 | 12.5 (≈ 40.1 µM) | 25 (≈ 80.3 µM) | 25 (≈ 80.3 µM) | 12.5 (≈ 40.1 µM) | 6.25 (≈ 20.1 µM) | 12.5 (≈ 40.1 µM) | 12.5 (≈ 40.1 µM) | > 50 | 25 (≈ 80.3 µM) | – | –
COc1cccc(SC2=C(Cl)C(=O)c3ccccc3C2=O)c1 | – | – | – | – | – | – | > 50 | 12.5 (≈ 37.8 µM) | 25 (≈ 75.6 µM) | – | –
O=C1C(Cl)=C(N(c2ccccc2)c2ccccc2)C(=O)c2ccccc21 | 25 (≈ 69.5 µM) | 12.5 (≈ 34.7 µM) | 6.25 (≈ 17.4 µM) | 50 (≈ 139 µM) | 50 (≈ 139 µM) | 12.5 (≈ 34.7 µM) | 25 (≈ 69.5 µM) | > 50 | 25 (≈ 69.5 µM) | – | –
C[C@@H]1[C@H](O)[C@@H](C)/C=C/C=C/C=C/C=C/C=C/C=C/C=C/[C@H](O[C@@H]2O[C@H](C)[C@@H](O)[C@H](N)[C@@H]2O)C[C@@H]2O[C@](O)(C[C@@H](O)C[C@@H](O)[C@H](O)CC[C@@H](O)C[C@@H](O)CC(=O)O[C@H]1C)C[C@H](O)[C@H]2C(=O)O [AMPHOTERICIN B] | 0.78 (≈ 0.844 µM) | – | – | 1.56 (≈ 1.69 µM) | – | 0.39 (≈ 0.422 µM) | – | – | – | – | –
